Measurements reported in patent US20070254863A1 (priority 2006, published 2007).
Where two headings read alike, the source gives them in different places.

Tests used:
hamster SUR1 = molecular target: T1, hamster SUR1 (Cricetus cricetus, UniProt Q09427); assay: In vitro binding affinity to rodent KATP channels: SUR1 ([3H]glibenclamide displacement, COS cell membranes)
T1 construct: expressed in transfected cells; host or cells: COS-1 cells, transient (pcDNA vector)
Protocol: 1. In Vitro Binding Affinity of the Test Compounds to Rodent KATP Channels
Competitive binding experiments were performed to characterize the affinity of the test compounds for the binding sites for sulfonylureas and KATP channel openers (KCOS) on hamster SUR1. To assess the affinity for the sulfonylurea site, membranes from COS-cells transiently expressing hamster SUR1 were incubated in the presence of [^3H]glibenclamide with increasing concentrations of test compounds. […] For each test compound four displacement curves were measured (+/−MgATP from the human and hamster isoform). Per curve 9-15 distinct concentrations were tested covering the relevant range. All measurements were repeated at least 5 times in independent experiments.
(§1) [^3H]glibenclamide (specific activity 51 Ci mmol^−1) was obtained from NEN (Dreieich, Germany). Where needed, stock solutions were prepared in dimethylsulfoxide with a final solvent concentration in the media below 1%.
(§2) SUR- or Kir6.x isoforms were used either subcloned in the pcDNA (hamster SUR1, mouse Kir6.2) or pCMV vector (rat SUR2A, SUR2B).
(§3) For transfection, the cells were incubated 4 hours in a Tris-buffered salt solution containing DNA (5-10 μg/ml) plus DEAE-dextran (1 mg/ml), 2 min in HEPES-buffered salt solution plus dimethylsulfoxide (10%) and 4 hours in DMEM-HG plus chloroquine (100 μM). Cells were then returned to DMEM-HG plus 10% FCS. […] For binding experiments, resuspended membranes (final protein concentration 5-50 μg/ml) were incubated in “Tris-buffer” (50 mM, pH 7.4) containing either [^3H]glibenclamide (final concentration 0.3 nM or 3 nM and nonspecific binding defined by 100 nM or 1 μM glibenclamide for SUR1 or SUR2Y1205S-isoforms, respectively) or [^3H]P1075 (final concentration 3 nM, nonspecific binding defined by 100 μM pinacidil) and increasing concentrations of the test compounds. The free Mg^2+ concentration were kept close to 0.7 mM. […] Incubations were carried out for 1 h at room temperature and were terminated by rapid filtration through Whatman GF/B filters.
(§4) The inhibition constant (Ki value) of the test substances was calculated from the respective IC50 value, and was stated as the negative logarithmic value thereof (pKi).

rat SUR2A = rat SUR2A (Rattus norvegicus, UniProt Q63563); assay: In vitro binding affinity to rodent KATP channels: SUR2A ([3H]P1075 / [3H]glibenclamide displacement, COS cell membranes)
Sequence of rat SUR2A (Q63563 whole entry): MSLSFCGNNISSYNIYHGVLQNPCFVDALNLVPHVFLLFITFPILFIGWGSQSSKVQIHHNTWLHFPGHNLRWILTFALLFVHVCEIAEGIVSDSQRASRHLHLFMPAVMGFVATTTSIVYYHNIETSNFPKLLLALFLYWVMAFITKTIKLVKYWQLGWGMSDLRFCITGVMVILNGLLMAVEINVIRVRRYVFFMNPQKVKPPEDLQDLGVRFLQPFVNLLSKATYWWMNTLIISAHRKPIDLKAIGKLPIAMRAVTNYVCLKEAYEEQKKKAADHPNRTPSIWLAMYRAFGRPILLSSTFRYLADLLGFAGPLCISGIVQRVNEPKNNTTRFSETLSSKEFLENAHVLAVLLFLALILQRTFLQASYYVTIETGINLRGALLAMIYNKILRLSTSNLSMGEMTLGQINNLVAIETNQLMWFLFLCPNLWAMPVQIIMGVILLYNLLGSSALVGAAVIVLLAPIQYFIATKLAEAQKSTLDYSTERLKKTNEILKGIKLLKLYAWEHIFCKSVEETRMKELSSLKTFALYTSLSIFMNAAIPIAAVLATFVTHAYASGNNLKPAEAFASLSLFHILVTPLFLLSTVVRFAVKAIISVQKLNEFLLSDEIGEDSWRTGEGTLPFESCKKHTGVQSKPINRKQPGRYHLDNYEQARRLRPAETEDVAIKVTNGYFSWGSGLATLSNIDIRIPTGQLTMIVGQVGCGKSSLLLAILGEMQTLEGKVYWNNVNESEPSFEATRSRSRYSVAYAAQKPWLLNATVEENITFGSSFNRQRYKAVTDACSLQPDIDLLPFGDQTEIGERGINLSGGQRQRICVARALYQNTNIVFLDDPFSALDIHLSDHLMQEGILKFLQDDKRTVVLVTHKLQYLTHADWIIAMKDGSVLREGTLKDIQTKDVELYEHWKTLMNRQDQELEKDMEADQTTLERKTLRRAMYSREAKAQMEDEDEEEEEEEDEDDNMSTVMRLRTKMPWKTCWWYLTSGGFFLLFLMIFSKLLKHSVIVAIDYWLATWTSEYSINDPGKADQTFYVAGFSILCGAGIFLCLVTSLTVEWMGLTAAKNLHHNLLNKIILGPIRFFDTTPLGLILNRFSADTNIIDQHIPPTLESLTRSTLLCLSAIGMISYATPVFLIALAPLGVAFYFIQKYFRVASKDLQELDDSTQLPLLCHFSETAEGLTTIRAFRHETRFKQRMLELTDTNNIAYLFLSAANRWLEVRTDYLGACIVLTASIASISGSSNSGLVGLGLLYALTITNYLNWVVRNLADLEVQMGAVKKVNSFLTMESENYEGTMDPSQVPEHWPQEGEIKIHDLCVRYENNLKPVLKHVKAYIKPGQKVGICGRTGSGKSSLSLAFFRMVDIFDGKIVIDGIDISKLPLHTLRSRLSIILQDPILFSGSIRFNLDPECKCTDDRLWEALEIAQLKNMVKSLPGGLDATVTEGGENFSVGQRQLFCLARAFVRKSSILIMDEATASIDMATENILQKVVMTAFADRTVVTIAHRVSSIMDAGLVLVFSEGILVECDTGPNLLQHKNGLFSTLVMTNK
Protocol: Therefore, two strategies can be used to detect binding to the sulfonylurea site on SUR2A.
Membranes from COS-cells transiently expressing rat SUR2A were incubated in the presence of the radioligands with increasing concentrations of test compounds as described above. […] For each test compound four displacement curves were measured (displacement of [^3H]P1075 from the rat isoform of the wild type receptor and displacement of [^3H]glibenclamide from the rat isoform of SUR2AY1205S). Per curve 9-15 distinct concentrations were tested covering the relevant range. All measurements were repeated at least 5 times in independent experiments.
as §1, §2, §3, §4

[1] = hamster SUR1 in COS cell membranes, read-out: Affinity to SUR 1 (converted)

T1 sequence (Q09427 whole entry): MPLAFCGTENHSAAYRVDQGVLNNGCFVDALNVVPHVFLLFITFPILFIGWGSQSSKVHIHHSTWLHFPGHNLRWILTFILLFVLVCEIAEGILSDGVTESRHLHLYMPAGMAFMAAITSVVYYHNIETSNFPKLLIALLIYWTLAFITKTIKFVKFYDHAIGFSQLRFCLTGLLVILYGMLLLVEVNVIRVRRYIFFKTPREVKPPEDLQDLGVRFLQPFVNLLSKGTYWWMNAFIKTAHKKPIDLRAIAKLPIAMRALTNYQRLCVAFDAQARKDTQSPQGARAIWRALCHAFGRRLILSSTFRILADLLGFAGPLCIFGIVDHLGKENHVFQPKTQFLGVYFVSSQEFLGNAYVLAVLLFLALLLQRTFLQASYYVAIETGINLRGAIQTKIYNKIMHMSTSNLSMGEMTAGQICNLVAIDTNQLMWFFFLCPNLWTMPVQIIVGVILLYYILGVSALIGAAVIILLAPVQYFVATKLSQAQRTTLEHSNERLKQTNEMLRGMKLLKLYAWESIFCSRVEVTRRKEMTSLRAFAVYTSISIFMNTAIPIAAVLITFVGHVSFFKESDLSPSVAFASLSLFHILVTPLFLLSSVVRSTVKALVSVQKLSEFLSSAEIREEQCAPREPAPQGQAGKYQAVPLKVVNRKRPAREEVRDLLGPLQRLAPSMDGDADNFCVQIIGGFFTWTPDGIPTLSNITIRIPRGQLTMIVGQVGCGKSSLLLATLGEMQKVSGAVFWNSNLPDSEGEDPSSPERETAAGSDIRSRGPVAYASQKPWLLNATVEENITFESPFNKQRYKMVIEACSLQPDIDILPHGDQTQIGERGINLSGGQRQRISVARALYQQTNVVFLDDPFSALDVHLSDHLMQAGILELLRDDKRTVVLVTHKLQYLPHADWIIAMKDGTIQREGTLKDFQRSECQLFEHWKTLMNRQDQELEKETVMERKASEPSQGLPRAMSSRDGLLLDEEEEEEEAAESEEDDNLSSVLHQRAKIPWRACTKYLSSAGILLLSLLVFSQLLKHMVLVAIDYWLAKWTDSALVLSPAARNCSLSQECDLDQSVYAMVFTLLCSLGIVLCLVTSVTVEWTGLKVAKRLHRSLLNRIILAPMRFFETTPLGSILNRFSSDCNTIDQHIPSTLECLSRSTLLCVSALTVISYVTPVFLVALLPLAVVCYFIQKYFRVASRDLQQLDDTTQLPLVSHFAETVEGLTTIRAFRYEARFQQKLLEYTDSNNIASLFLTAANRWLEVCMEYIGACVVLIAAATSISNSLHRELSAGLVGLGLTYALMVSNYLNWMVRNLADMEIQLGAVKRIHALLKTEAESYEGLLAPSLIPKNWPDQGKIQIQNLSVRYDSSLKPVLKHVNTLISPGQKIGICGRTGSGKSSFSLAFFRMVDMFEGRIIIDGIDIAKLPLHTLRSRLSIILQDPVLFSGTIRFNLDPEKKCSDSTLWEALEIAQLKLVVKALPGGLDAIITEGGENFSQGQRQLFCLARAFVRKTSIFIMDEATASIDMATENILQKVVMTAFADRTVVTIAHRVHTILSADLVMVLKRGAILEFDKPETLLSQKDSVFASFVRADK

Structure (SMILES) | Ki (hamster SUR1; [1]) | pKi (rat SUR2A) | also measured
Cc1ccc(Cn2nc(C(=O)N[C@@H]3C(C)(C)[C@@H]4CC[C@@]3(C)C4)cc2-c2ccc(Cl)c(C)c2)cc1 [SR 144528, reference compound] | 126 nM |  | 
CNC(=NS(=O)(=O)c1ccc(C(F)(F)F)cc1)N1CC(c2ccccc2)C(c2ccc(Cl)cc2)=N1 (centres unmarked) [N-{[3-(4-Chloro-phenyl)-4-phenyl-4,5-dihydro-pyrazol-1-yl]-methylamino-methylene}-4-trifluoromethyl-benzene-sulfonamide] | 501 nM | 4.2 | 
Cn1c(C(=O)NC2CCCCC2)nc(-c2ccc(Cl)cc2)c1-c1ccc(Cl)cc1Cl [4-(4-Chloro-phenyl)-5-(2,4-dichloro-phenyl)-1-methyl-1H-imidazole-2-carboxylic acid cyclohexylamide] | 100000 nM |  | pKi (rat SUR2A; rat SUR2A in COS cell membranes): 4.7
O=C(NN1CCCCC1)c1nc(-c2ccc(Cl)cc2Cl)n(-c2ccc(Cl)cc2)c1CC(F)(F)F [1-(4-Chloro-phenyl)-2-(2,4-dichloro-phenyl)-5-(2,2,2-trifluoro-ethyl)-1H-imidazole-4-carboxylic acid piperidin-1-ylamide] | 15800 nM | 5.7 | 
CCCCCOc1c(OC)ccc2cc(C(=O)NCc3ccc4c(c3)OCO4)c(=O)[nH]c12 [JTE-907, 7-Methoxy-2-oxo-8-pentyloxy-1,2-di-hydro-quinoline-3-carboxylic acid (benzo[1,3]dioxol-5-ylmethyl)-amide, reference compound] | 794 nM |  | 
CNC(=NS(=O)(=O)N1CCOCC1)C1=NN(c2ccc(Cl)cc2Cl)C(c2ccccc2)C1 (centres unmarked) [Morpholine-4-sulfonic acid [1-(2,4-dichloro-phenyl)-5-phenyl-4,5-dihydro-1H-pyrazol-3-yl]-methylamino-methyleneamide] | 5010 nM | 5.0 | 
CNC(=NS(=O)(=O)N1CCCCC1)N1C[C@H](c2ccccc2)C(c2ccc(Cl)cc2)=N1 [Piperidine-1-sulfonic acid [3-(4-chloro-phenyl)-4-phenyl-4,5-dihydro-pyrazol-1-yl]-methylamino-methyleneamide] | 1580 nM |  | 
CCCCCCC(C)(C)c1cc(O)c2c(c1)OC(C)(C)[C@@H]1CC=C(CO)CC21 (some centres unmarked) [HU-210, 3-(1,1-Dimethyl-heptyl)-9-hydroxymethyl-6,6-dimethyl-6a,7,10,10a-tetra hydro-6H-enzo[c]chromen-1-ol, reference compound] | 794 nM |  | 
CCCCCCC(C)(C)c1ccc([C@@H]2C[C@H](O)CC[C@@H]2CCCO)c(O)c1 (stereo in doubt) [CP55940-entantiomer, 5-(1,1-Dimethyl-heptyl)-2-[5-hydroxy-2-(3-hydroxy-propyl)-cyclohexyl]-phenol, reference compound] | 5010 nM |  | 
CN/C(=N\S(=O)(=O)c1ccc(Cl)cc1)N1C[C@@H](c2ccccc2)C(c2ccc(Cl)cc2)=N1 [4-Chloro-N-{[3-(4-chloro-phenyl)-4-phenyl-4,5-dihydro-pyrazol-1-yl]-methylamino-methylene}-benzenesulfonamide] | 1000 nM |  | 
Cc1c(NC(=O)c2ccccc2)nc(-c2ccc(Cl)cc2Cl)n1-c1ccc(Cl)cc1 [N-[1-(4-Chloro-phenyl)-2-(2,4-dichloro-phenyl)-5-methyl-1H-imidazol-4-yl]-benzamide] | 2000 nM |  | 
CN1CCCC1CN/C(=N\S(=O)(=O)c1ccc(Cl)cc1)N1CC(c2ccccc2)C(c2ccc(Cl)cc2)=N1 (centres unmarked) [4-Chloro-N-{[3-(4-chloro-phenyl)-4-phenyl-4,5-dihydro-pyrazol-1-yl]-[(1-methyl-pyrrolidin-2-ylmethyl)-amino]-methylene}-benzenesulfonamide] |  | 5.1 | 
CCCCCCC(C)(C)c1cc(OC)c(C2C=C(CO)[C@H]3C[C@@H]2C3(C)C)c(OC)c1 (stereo in doubt) [HU308, {4-[4-(1,1-Dimethyl-heptyl)-2,6-dimethoxy-phenyl]-6,6-dimethyl-bicyclo[3.1.1]hept-2-en-2-yl}-methanol, reference compound] |  |  | Ki (hamster SUR1): 398 nM
